# In ChEMBL document CHEMBL4507301 (2021):
# What was measured:
# [1] = tested on: Tyrosine-protein kinase ABL1 (Homo sapiens), P00519 [Q252H]; details: Compound concentration 1000.0 nM
# [2] = tested on: Tyrosine-protein kinase ABL1 (Homo sapiens), P00519 [T315I]; details: Compound concentration 1000.0 nM
# [3] = target: Activin receptor type-1-like (Homo sapiens) (UniProt P37023); details: Compound concentration 1000.0 nM
# [4] = target: Tyrosine-protein kinase Blk (Homo sapiens) (UniProt P51451); details: Compound concentration 1000.0 nM
# [5] = tested on: Serine/threonine-protein kinase B-raf (Homo sapiens), P15056 [V600E]; details: Compound concentration 1000.0 nM
# [6] = target: Tyrosine-protein kinase BTK (Homo sapiens) (UniProt Q06187); details: Compound concentration 1000.0 nM
# [7] = target: Calcium/calmodulin-dependent protein kinase type II subunit delta (Homo sapiens) (UniProt Q13557); details: Compound concentration 1000.0 nM
# Chain of Calcium/calmodulin-dependent protein kinase type II subunit delta (Homo sapiens) (Q13557 whole entry): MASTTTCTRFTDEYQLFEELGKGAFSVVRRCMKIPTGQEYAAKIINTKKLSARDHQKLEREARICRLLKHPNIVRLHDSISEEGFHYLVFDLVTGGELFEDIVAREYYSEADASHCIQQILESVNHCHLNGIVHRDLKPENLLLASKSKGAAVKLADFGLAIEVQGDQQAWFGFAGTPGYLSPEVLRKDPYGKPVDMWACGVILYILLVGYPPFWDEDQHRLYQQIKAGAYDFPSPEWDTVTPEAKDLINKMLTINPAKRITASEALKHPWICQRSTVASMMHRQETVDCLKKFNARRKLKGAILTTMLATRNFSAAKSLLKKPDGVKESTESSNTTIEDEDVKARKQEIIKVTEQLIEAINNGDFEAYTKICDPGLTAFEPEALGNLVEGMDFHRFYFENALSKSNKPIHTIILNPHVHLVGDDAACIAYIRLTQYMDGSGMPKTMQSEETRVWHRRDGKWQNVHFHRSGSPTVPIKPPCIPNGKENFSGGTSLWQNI
# [8] = target: Cyclin-dependent kinase 2 (Homo sapiens) (UniProt P24941); details: Compound concentration 1000.0 nM
# [9] = target: Macrophage colony-stimulating factor 1 receptor (Homo sapiens) (UniProt P07333); details: Compound concentration 1000.0 nM
# [10] = target: Casein kinase I isoform epsilon (Homo sapiens) (UniProt P49674); details: Compound concentration 1000.0 nM
# Chain of Casein kinase I isoform epsilon (Homo sapiens) (P49674 whole entry, looked up, canonical isoform): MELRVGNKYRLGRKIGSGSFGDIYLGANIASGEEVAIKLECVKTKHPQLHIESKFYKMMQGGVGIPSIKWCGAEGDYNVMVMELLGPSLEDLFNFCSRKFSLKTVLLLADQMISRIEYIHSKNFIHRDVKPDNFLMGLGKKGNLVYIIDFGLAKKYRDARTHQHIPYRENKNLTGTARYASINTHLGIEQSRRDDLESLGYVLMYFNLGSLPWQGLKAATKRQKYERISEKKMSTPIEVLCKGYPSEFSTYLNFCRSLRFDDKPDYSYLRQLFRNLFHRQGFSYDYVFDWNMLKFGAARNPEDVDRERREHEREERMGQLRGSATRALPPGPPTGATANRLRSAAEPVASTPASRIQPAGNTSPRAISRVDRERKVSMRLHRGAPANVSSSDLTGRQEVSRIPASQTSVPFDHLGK
# [11] = target: Serine/threonine-protein kinase DCLK1 (Homo sapiens) (UniProt O15075); details: Compound concentration 1000.0 nM
# [12] = target: Discoidin domain-containing receptor 2 (Homo sapiens) (UniProt Q16832); details: Compound concentration 1000.0 nM
# [13] = target: Serine/threonine-protein kinase 17A (Homo sapiens) (UniProt Q9UEE5); details: Compound concentration 1000.0 nM
# Chain of Serine/threonine-protein kinase 17A (Homo sapiens) (Q9UEE5 whole entry): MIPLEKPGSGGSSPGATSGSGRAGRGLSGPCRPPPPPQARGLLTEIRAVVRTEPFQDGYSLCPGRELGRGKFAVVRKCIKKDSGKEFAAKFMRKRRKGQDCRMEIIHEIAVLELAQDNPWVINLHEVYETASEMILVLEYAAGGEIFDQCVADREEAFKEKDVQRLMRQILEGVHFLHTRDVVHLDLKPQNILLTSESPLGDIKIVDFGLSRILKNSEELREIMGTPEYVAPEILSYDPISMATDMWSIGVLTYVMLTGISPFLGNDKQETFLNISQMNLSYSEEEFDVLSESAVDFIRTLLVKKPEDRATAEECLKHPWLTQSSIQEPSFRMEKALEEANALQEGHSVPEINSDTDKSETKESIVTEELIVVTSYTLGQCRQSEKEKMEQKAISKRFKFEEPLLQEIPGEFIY
# [14] = tested on: Epidermal growth factor receptor (Homo sapiens), P00533 [UNDEFINED MUTATION]; details: Compound concentration 1000.0 nM
# [15] = tested on: Epidermal growth factor receptor (Homo sapiens), P00533 [T790M]; details: Compound concentration 1000.0 nM
# [16] = target: Tyrosine-protein kinase Fgr (Homo sapiens) (UniProt P09769); details: Compound concentration 1000.0 nM
# Chain of Tyrosine-protein kinase Fgr (Homo sapiens) (P09769 2-529 limits assumed): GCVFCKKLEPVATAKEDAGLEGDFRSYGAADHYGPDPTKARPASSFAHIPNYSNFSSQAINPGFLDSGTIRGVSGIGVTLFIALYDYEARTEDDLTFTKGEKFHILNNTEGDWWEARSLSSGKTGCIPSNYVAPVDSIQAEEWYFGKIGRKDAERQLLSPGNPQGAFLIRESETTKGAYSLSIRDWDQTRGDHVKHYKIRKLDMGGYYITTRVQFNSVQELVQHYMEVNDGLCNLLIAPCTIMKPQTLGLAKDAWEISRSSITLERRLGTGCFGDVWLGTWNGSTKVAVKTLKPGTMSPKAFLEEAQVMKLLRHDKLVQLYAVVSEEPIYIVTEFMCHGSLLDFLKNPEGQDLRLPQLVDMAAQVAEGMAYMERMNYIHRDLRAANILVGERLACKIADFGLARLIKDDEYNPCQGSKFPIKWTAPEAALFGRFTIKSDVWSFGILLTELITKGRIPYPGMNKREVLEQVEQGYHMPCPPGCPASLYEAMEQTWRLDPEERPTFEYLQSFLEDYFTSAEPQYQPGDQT
# [17] = target: Tyrosine-protein kinase FRK (Homo sapiens) (UniProt P42685); details: Compound concentration 1000.0 nM
# [18] = target: Homeodomain-interacting protein kinase 2 (Homo sapiens) (UniProt Q9H2X6); details: Compound concentration 1000.0 nM
# [19] = target: Dual specificity mitogen-activated protein kinase kinase 1 (Homo sapiens) (UniProt Q02750); details: Compound concentration 1000.0 nM
# [20] = target: Dual specificity mitogen-activated protein kinase kinase 3 (Homo sapiens) (UniProt P46734); details: Compound concentration 1000.0 nM
# Chain of Dual specificity mitogen-activated protein kinase kinase 3 (Homo sapiens) (P46734 whole entry): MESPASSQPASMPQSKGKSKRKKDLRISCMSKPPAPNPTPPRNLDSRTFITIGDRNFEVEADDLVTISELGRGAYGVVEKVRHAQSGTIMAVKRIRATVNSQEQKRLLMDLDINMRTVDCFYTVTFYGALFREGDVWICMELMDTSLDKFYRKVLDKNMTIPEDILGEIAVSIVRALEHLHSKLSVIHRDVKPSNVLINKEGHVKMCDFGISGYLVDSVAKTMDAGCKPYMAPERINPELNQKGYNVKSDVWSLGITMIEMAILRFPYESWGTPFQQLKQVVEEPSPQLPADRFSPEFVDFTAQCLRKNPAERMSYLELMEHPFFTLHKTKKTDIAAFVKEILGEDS
# [21] = target: Serine/threonine-protein kinase 26 (Homo sapiens) (UniProt Q9P289); details: Compound concentration 1000.0 nM
# Chain of Serine/threonine-protein kinase 26 (Homo sapiens) (Q9P289 2-416 limits assumed): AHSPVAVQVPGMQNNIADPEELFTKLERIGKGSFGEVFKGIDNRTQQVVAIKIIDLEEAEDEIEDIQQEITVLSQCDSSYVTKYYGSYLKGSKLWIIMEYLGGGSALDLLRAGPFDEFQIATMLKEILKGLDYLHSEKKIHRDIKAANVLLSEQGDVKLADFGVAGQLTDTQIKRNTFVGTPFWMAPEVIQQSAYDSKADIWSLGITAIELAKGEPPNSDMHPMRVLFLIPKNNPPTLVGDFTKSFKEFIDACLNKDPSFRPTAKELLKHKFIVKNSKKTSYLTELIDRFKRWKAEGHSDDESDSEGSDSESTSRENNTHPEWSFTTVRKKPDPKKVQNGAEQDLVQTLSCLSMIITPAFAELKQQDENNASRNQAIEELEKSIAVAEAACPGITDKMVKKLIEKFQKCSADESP
# [22] = target: Serine/threonine-protein kinase mTOR (Homo sapiens) (UniProt P42345); details: Compound concentration 1000.0 nM
# [23] = target: Serine/threonine-protein kinase 38 (Homo sapiens) (UniProt Q15208); details: Compound concentration 1000.0 nM
# Chain of Serine/threonine-protein kinase 38 (Homo sapiens) (Q15208 2-465 limits assumed): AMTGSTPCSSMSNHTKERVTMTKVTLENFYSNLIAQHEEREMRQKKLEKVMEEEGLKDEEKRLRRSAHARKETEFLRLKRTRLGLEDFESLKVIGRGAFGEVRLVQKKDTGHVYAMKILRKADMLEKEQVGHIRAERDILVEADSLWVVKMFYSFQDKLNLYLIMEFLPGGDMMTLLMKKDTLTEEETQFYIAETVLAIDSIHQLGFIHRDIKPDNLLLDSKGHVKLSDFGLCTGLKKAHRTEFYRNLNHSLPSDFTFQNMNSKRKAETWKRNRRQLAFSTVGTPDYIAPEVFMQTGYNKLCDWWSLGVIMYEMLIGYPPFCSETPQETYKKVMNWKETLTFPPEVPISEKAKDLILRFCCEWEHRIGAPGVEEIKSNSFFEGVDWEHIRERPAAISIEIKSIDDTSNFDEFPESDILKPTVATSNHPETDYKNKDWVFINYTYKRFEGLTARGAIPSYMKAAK
# [24] = target: Serine/threonine-protein kinase 38-like (Homo sapiens) (UniProt Q9Y2H1); details: Compound concentration 1000.0 nM
# Chain of Serine/threonine-protein kinase 38-like (Homo sapiens) (Q9Y2H1 2-464 limits assumed): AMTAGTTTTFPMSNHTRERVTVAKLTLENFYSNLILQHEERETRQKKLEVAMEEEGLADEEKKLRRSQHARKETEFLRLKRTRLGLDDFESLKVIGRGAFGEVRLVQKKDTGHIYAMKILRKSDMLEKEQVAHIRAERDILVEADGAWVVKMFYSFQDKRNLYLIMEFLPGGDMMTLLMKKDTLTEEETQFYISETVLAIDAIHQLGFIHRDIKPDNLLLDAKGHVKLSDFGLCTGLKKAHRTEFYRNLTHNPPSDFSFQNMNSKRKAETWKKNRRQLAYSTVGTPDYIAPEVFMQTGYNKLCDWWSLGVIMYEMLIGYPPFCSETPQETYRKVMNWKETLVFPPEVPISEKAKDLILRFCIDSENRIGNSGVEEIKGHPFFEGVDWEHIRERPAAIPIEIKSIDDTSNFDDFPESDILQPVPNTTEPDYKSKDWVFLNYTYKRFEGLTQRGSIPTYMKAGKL
# [25] = target: Mitogen-activated protein kinase 14 (Homo sapiens) (UniProt Q16539); details: Compound concentration 1000.0 nM
# Chain of Mitogen-activated protein kinase 14 (Homo sapiens) (Q16539 whole entry, canonical isoform): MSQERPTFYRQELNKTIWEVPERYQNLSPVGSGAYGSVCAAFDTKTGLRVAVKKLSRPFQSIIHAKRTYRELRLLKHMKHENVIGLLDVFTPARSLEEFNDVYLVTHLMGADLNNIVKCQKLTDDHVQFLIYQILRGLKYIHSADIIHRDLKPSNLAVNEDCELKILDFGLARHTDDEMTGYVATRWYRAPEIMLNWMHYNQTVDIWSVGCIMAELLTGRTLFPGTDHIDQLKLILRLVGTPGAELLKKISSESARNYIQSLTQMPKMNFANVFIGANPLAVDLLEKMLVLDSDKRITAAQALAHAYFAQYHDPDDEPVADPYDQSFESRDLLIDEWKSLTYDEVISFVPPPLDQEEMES
# [26] = tested on: Phosphatidylinositol 4,5-bisphosphate 3-kinase catalytic subunit alpha isoform (Homo sapiens), P42336 [I800L]; details: Compound concentration 1000.0 nM
# [27] = target: Serine/threonine-protein kinase PLK4 (Homo sapiens) (UniProt O00444); details: Compound concentration 1000.0 nM
# [28] = target: Serine/threonine-protein kinase PRP4 homolog (Homo sapiens) (UniProt Q13523); details: Compound concentration 1000.0 nM
# [29] = target: Rho-associated protein kinase 1 (Homo sapiens) (UniProt Q13464); details: Compound concentration 1000.0 nM
# [30] = target: Ribosomal protein S6 kinase alpha-2 (Homo sapiens) (UniProt Q15349); details: Compound concentration 1000.0 nM
# [31] = target: Tyrosine-protein kinase SYK (Homo sapiens) (UniProt P43405); details: Compound concentration 1000.0 nM
# [32] = target: Serine/threonine-protein kinase TNNI3K (Homo sapiens) (UniProt Q59H18); details: Compound concentration 1000.0 nM
# [33] = target: Tyrosine-protein kinase receptor TYRO3 (Homo sapiens) (UniProt Q06418); details: Compound concentration 1000.0 nM
# [34] = target: Serine/threonine-protein kinase ULK3 (Homo sapiens) (UniProt Q6PHR2); details: Compound concentration 1000.0 nM
# Chain of Serine/threonine-protein kinase ULK3 (Homo sapiens) (Q6PHR2 whole entry): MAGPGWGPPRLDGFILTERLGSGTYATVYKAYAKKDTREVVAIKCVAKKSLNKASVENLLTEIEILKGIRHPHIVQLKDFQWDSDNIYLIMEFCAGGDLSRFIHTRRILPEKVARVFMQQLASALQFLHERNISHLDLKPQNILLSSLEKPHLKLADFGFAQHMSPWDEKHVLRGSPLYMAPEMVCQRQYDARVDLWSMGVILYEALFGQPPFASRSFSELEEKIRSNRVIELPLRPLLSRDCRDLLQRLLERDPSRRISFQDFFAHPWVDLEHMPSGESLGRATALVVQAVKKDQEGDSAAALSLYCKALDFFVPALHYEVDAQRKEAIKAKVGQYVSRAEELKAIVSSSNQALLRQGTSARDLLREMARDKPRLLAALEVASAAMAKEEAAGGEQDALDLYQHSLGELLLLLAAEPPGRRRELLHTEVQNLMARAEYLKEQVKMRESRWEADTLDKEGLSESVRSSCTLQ
# [35] = target: Wee1-like protein kinase 2 (Homo sapiens) (UniProt P0C1S8); details: Compound concentration 1000.0 nM
# [36] = target: Serine/threonine-protein kinase WNK2 (Homo sapiens) (UniProt Q9Y3S1); details: Compound concentration 1000.0 nM
# [37] = target: Mitogen-activated protein kinase kinase kinase 20 (Homo sapiens) (UniProt Q9NYL2); details: Compound concentration 1000.0 nM
# [38] = target: T1, Alpha-2C adrenergic receptor (Homo sapiens) (UniProt P18825); details: Compound concentration 10.0 uM
# T1 sequence (whole entry): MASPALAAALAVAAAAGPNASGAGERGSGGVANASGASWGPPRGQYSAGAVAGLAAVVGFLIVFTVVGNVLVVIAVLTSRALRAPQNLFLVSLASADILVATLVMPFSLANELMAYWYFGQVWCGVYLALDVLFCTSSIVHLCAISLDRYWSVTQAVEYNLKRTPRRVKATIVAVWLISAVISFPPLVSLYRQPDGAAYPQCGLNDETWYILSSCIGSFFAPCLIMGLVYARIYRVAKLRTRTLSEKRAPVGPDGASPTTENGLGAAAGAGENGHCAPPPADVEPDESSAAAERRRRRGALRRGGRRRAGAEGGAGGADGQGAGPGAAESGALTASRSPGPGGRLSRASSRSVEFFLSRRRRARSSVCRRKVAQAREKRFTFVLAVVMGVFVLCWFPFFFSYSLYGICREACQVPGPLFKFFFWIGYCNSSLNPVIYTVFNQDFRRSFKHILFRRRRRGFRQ
# [39] = target: Alpha-1D adrenergic receptor (Homo sapiens) (UniProt P25100); details: Compound concentration 10.0 uM
# Chain of Alpha-1D adrenergic receptor (Homo sapiens) (P25100 whole entry): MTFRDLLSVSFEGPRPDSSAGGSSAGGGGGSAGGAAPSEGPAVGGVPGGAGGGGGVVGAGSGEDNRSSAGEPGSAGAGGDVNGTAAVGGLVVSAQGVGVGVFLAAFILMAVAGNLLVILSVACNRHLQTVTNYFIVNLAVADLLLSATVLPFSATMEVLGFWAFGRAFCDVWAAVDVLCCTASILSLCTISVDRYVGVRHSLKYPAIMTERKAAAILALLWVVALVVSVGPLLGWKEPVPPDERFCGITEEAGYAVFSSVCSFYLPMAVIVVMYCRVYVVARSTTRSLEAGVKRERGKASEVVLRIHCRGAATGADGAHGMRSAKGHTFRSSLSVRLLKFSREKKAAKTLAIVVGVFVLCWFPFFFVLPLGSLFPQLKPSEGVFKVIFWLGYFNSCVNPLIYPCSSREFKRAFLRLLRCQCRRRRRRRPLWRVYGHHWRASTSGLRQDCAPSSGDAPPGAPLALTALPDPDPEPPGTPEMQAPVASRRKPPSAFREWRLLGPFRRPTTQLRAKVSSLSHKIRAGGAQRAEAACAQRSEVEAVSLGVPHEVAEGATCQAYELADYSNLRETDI
Compound,residual activity [1],residual activity [2],residual activity [3],residual activity [4],residual activity [5],residual activity [6],residual activity [7],residual activity [8],residual activity [9],residual activity [10],residual activity [11],residual activity [12],residual activity [13],residual activity [14],residual activity [15],residual activity [16],residual activity [17],residual activity [18],residual activity [19],residual activity [20],also measured
C[C@@H](c1cccc(C#N)c1)n1cc(Cl)cc(C(N)=O)c1=N [(S)-9s],78%,85%,80%,85%,95%,98%,100%,100%,96%,100%,98%,88%,89%,90%,93%,87%,100%,100%,80%,67%,residual activity [21]: 68%; residual activity [22]: 96%; residual activity [23]: 84%; residual activity [24]: 85%; residual activity [25]: 100%; residual activity [26]: 71%; residual activity [27]: 100%; residual activity [28]: 100%; residual activity [29]: 71%; residual activity [30]: 100%; residual activity [31]: 96%; residual activity [32]: 100%; residual activity [33]: 68%; residual activity [34]: 75%; residual activity [35]: 77%; residual activity [36]: 67%; residual activity [37]: 71%; inhibition [38]: 3.93%; inhibition [39]: 60.5%
C[C@H](c1cccc(C#N)c1)n1cc(Cl)cc(C(N)=O)c1=N [(R)-9s],84%,92%,93%,78%,100%,91%,100%,100%,100%,99%,76%,100%,85%,97%,80%,80%,98%,100%,75%,73%,residual activity [21]: 88%; residual activity [22]: 91%; residual activity [23]: 87%; residual activity [24]: 68%; residual activity [25]: 100%; residual activity [26]: 56%; residual activity [27]: 100%; residual activity [28]: 93%; residual activity [29]: 71%; residual activity [30]: 62%; residual activity [31]: 100%; residual activity [32]: 92%; residual activity [33]: 33%; residual activity [34]: 64%; residual activity [35]: 97%; residual activity [36]: 58%; residual activity [37]: 86%; inhibition [38]: 42.7%; inhibition [39]: 93.3%
